# Test results from ChEMBL document CHEMBL1201862, “PubChem BioAssay data set” (2004).
# The source made the active and inactive calls.
# Assays:
# Cytochrome P450 1A2 = target: T1, Cytochrome P450 1A2 (Homo sapiens, UniProt P05177);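 note: PubChem cytochrome P450 panel assay, CYP1A2 panel member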
# T1 sequence (P05177 whole entry): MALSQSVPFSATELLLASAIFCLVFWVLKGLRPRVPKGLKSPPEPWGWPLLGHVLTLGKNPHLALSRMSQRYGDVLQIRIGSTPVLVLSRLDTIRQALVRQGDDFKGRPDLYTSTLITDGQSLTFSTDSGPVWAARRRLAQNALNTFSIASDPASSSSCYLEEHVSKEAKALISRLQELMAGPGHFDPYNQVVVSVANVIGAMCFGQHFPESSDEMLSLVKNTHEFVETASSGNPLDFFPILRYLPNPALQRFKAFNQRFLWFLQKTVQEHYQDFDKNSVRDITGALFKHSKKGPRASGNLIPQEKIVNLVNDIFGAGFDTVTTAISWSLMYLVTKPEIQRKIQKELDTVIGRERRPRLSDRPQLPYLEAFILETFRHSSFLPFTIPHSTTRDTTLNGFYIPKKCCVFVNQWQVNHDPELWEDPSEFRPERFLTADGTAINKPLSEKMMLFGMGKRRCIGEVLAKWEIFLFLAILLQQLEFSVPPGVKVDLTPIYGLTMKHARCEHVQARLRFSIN
# Cytochrome P450 2C9 = Cytochrome P450 2C9 (Homo sapiens, UniProt P11712)
# Sequence of Cytochrome P450 2C9 (P11712 whole entry): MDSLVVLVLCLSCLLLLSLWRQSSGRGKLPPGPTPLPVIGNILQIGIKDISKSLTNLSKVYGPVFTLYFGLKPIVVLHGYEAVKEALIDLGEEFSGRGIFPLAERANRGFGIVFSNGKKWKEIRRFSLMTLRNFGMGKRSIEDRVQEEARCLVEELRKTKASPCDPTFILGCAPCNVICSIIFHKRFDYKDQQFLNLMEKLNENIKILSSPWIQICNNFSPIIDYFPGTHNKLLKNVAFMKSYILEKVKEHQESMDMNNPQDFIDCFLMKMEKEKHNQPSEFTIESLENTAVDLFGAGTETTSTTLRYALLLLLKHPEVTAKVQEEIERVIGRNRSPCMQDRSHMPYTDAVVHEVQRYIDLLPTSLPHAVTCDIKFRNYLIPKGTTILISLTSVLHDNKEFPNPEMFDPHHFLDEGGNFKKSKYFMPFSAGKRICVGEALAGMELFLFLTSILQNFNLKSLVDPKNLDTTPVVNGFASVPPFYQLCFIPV
# Cytochrome P450 3A4 = Cytochrome P450 3A4 (Homo sapiens, UniProt P08684);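 note: CYP3A4 tested as one member of a cytochrome P450 panel screen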
# Sequence of Cytochrome P450 3A4 (P08684 whole entry): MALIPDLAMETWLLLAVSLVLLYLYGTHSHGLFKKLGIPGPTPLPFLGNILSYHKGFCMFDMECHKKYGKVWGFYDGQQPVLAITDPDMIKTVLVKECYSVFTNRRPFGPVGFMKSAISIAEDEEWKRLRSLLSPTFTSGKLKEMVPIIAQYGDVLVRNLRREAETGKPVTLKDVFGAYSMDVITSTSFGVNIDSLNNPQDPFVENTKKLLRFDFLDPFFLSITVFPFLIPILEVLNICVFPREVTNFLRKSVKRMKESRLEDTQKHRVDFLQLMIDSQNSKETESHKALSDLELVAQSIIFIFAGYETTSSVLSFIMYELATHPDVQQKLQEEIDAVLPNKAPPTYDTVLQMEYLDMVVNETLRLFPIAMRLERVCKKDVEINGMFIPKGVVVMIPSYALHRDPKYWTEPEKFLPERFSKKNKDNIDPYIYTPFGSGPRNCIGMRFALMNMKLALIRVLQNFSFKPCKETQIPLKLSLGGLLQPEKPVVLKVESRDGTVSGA
# Cytochrome P450 2C19 = Cytochrome P450 2C19 (Homo sapiens, UniProt P33261); assay: Cytochrome panel assay with activity outcomes. Panel member name: p450-cyp2c19 Compounds with AC50 equal or less than 10 uM are considered active; format: functional
# Sequence of Cytochrome P450 2C19 (P33261 whole entry): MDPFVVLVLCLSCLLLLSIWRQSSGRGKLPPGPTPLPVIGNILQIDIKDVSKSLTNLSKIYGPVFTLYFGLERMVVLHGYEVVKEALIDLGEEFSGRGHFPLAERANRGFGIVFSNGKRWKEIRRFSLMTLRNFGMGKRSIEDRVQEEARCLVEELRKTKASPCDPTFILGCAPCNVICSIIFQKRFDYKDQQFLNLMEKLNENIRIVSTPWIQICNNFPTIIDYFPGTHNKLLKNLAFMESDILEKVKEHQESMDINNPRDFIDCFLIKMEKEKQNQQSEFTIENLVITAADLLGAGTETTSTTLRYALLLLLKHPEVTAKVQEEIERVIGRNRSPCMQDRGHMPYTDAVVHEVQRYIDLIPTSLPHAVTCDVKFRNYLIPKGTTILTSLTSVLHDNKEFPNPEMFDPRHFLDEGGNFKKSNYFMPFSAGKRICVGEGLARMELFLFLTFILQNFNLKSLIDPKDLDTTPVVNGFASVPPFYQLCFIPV
# [1] = Luminescence Cell-Based Dose Retest to Confirm Inhibitors of Cancer Stem Cells. [Related pubchem assays (depositor defined):AID2717, AID2721]; format: functional; conditions: Homo sapiens
# [2] = HEp-2 cell cytotoxicity, dose response, cytotoxicity control for RSV inhibitor project, HTS (AID 2410); format: functional; conditions: human respiratory syncytial virus
# Streptococcus = assay: Group A Streptococcus viability loss, dose response, counter-screen for streptokinase expression inhibitor project, luminescence, BacTiterGlo (AID 1915); format: functional, organism-based;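 note: potency for reduction of bacterial viability or growth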
# Streptokinase A = target: T2, Streptokinase A (Streptococcus pyogenes serotype M1, UniProt P10520); assay: S. pyogenes streptokinase expression inhibitors, potency, dose response, plasminogen activation absorbance, OD405 (AID 1914); format: functional, Streptococcus pyogenes M1 GAS;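 note: secreted streptokinase activity via plasminogen activation per viability signal from cell pellet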
# T2 sequence (P10520 whole entry): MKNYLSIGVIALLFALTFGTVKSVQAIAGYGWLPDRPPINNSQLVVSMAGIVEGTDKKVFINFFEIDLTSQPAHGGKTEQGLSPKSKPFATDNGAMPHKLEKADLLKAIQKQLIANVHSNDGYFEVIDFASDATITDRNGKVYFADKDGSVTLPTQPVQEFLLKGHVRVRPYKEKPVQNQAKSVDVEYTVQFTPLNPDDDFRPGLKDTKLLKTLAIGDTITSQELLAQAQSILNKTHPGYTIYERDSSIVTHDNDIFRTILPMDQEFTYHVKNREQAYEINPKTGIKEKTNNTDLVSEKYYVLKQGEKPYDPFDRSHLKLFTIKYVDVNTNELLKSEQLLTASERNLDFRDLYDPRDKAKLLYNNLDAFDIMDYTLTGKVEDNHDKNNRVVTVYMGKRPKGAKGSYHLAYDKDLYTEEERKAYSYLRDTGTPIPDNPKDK
# [3] = tested on: Streptococcus sp. 'group A'; assay: growth inhibition of control SK(-) GAS strain, dose response, counter-screen for streptokinase expression inhibitor project, luminescence, kanamycin, BacTiterGlo, confirmation (AID 1900); format: functional, organism-based
# [4] = target: T3, Corticotropin-releasing factor receptor 2/Corticotropin-releasing factor-binding protein (Homo sapiens, UniProt P24387+Q13324); assay: activators of CRF receptor 2 with binding protein – uHTS hits, confirmation (AID 602473); format: functional; conditions: read-out: EC50_Mean
# T3 sequence (Q13324 whole entry): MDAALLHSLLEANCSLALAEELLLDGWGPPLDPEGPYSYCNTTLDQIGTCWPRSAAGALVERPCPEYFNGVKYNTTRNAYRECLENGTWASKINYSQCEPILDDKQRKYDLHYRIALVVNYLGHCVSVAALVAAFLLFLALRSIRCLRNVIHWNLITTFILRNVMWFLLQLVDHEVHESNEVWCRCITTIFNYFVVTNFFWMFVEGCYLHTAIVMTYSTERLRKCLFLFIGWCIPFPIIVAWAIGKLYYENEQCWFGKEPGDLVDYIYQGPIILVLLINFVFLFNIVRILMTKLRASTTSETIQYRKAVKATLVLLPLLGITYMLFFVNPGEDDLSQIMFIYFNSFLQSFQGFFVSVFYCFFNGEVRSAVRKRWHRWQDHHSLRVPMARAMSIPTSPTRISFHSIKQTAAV
# T3 sequence (P24387 whole entry): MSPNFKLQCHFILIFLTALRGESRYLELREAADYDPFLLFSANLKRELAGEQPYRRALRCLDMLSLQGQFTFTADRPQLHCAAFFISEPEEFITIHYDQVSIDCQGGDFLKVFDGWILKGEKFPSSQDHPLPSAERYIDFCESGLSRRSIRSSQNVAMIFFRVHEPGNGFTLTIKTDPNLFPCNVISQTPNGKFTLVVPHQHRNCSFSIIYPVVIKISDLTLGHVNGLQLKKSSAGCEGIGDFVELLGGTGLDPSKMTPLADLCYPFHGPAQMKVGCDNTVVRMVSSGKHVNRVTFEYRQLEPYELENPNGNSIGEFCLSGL
# [5] = Shn3 3'UTR reporter inhibitors, dose response, cell-based, Clone20 osteoblasts, firefly luciferase, cherry-picked (AID 624132); format: functional;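 note: firefly luciferase luminescence from reporter carrying the Shn3 3'UTR in osteoblasts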
# [6] = control 3'UTR Renilla luciferase suppression, dose response, counter-screen for Shn3 inhibitor project, cell-based, Clone20-Shn3RL, cherry-picked (AID 624133); format: functional
# [7] = cytotoxicity toward NIH3T3 fibroblasts, dose response, counter-screen, cell-based, ATP luminescence, mouse fibroblasts (AID 2010); format: functional;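 note: cells exposed to compound for about 90 hours before reading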
# [8] = inhibitors of intracellular T. cruzi replication, confirmation, NIH3T3 host cells, beta-gal luminescence (AID 2044); format: functional, cell-based;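 note: intracellular parasites grown in NIH/3T3 mouse fibroblasts as host cells; luminescent beta-galactosidase reporter signal from transgenic T. cruzi replicating inside host cells; inhibitors lower the luminescence signal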
# Paired box protein Pax-8 = Paired box protein Pax-8 (Homo sapiens, UniProt Q06710); assay: inhibitors of PAX8-driven TPO luciferase reporter, dose response, RMG-I cells, cherry-pick (AID 687027); format: functional, cell-based;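 note: luciferase reporter driven by Pax8 target thyroperoxidase promoter measured by SteadyGlo luminescence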
# Sequence of Paired box protein Pax-8 (Q06710 whole entry): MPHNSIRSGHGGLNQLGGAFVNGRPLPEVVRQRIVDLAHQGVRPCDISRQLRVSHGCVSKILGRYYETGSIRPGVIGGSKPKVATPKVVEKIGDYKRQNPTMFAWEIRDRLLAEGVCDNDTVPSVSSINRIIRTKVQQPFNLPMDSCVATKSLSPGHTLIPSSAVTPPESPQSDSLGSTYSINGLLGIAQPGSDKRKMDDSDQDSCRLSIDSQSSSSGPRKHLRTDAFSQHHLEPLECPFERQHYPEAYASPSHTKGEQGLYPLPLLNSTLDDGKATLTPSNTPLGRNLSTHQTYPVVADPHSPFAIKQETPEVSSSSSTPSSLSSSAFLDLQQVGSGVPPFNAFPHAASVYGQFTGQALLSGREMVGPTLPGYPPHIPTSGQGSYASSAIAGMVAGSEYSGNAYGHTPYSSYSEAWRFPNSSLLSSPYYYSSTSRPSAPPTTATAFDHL
smiles,measurement,setting,value
O=C(O)/C=C\c1ccc(Cn2ccnc2)cc1,AC50,Cytochrome P450 1A2,12.6 µM (inconclusive)
CN(Cc1cc(Br)cc(Br)c1O)Cc1c(O)ccc2ccccc12,AC50,Cytochrome P450 1A2,1.26 µM (inconclusive)
same,AC50,Cytochrome P450 2C9,3.16 µM (inconclusive)
same,AC50,Cytochrome P450 3A4,3.98 µM (inconclusive)
CCOC(=O)CSc1nnc(Cc2cc(O)nc(O)n2)n1-c1cccc(OC)c1,AC50,Cytochrome P450 2C19,inconclusive
same,AC50,Cytochrome P450 3A4,22.4 µM (inconclusive)
CC1CCCCN1c1cc(C#N)c(C#N)cc1[N+](=O)[O-] (stereo not given),AC50,Cytochrome P450 1A2,3.16 µM (inconclusive)
same,AC50,Cytochrome P450 2C9,5.01 µM (inconclusive)
same,AC50,Cytochrome P450 3A4,15.8 µM (inconclusive)
same,AC50,[1],0.174 µM (active)
CCCCn1cnc2c(cnn2-c2ccc(F)cc2)c1=O,AC50,Cytochrome P450 2C19; read-out: AC50,2.51 µM (inconclusive)
Cn1c(SCc2ccccc2Cl)nc2c1c(=O)[nH]c(=O)n2C,CC50,[2],> 50 µM (active)
COc1ccc(-n2c(=O)c(C)nc3cnc(Nc4ccccc4)nc32)cc1,AC50,Cytochrome P450 1A2,5.01 µM (inconclusive)
same,AC50,Cytochrome P450 2C9,20 µM (inconclusive)
CCCn1nc(Oc2nc(NCC)nc(NCC)n2)ccc1=O,AC50,Cytochrome P450 1A2,15.8 µM (inconclusive)
same,AC50,Cytochrome P450 2C19; read-out: AC50,31.6 µM (inconclusive)
Cc1csc(NC(=O)c2c(O)c3c(n(CC(C)C)c2=O)CCCC3)n1,EC50,Streptococcus,17.3 µM (active)
same,EC50,Streptokinase A,> 150 µM (not active)
same,EC50,[3],11 µM (active)
CCc1ccccc1S(=O)(=O)Cc1ccc(C(=O)N2CCN(c3ccccc3OC)CC2)o1,CC50,[2],> 50 µM (active)
C[C@@H](CN1CCC(Cc2ccccc2)CC1)[C@H](O)c1ccc(O)cc1,AC50,Cytochrome P450 1A2,12.6 µM (inconclusive)
COCCNC(=O)C(c1ccc(C)o1)N(CC1CCCO1)C(=O)Cn1nnc2ccccc21 (stereo not given),AC50,Cytochrome P450 1A2,12.6 µM (inconclusive)
same,AC50,Cytochrome P450 2C19,inconclusive
same,AC50,Cytochrome P450 3A4,15.8 µM (inconclusive)
CCCCC1=NN2C(=N)CC(=O)N=C2S1,AC50,Cytochrome P450 1A2,25.1 µM (inconclusive)
same,AC50,Cytochrome P450 2C9,2.51 µM (inconclusive)
CCCCCn1c(SCc2ccncc2)nc2cc(C(=O)NCc3ccco3)ccc2c1=O,CC50,[2],48.3 µM (active)
COc1ccc2nc(N3C(=O)CNC3=S)sc2c1,EC50,Streptococcus,> 150 µM (not active)
same,EC50,Streptokinase A,> 150 µM (not active)
same,EC50,[3],3.47 µM (active)
COc1ccccc1N1CCN(C(=O)c2sc3ncnc(N4CCN(c5ccccn5)CC4)c3c2C)CC1,CC50,[2],12.2 µM (active)
CN(Cc1ccco1)c1ccnc(-c2ccoc2)n1,AC50,Cytochrome P450 2C19; read-out: AC50,25.1 µM (inconclusive)
CCCCCCNC(=O)C(C#N)c1nc2ccccc2nc1N1CCCC1 (stereo not given),EC50,[4],5.12 µM (active)
COCCCNC(=S)NNC(=S)Nc1cccc(Cl)c1,EC50,Streptokinase A,> 150 µM (not active)
COC(=O)c1c(-c2ccc(C)cc2)csc1NC(=O)c1c(-c2ccccc2)noc1C,CC50,[2],26.5 µM (active)
Cc1ccc(CN2CC(C(=O)Nc3nnc(SCc4c(Cl)cccc4Cl)s3)CC2=O)cc1 (stereo not given),EC50,Streptococcus,37.2 µM (active)
same,EC50,Streptokinase A,5.57 µM (active)
same,EC50,[3],4.07 µM (active)
CC12CC(O)C3c4ccc(O)cc4CCC3C1CCC2=O (stereo not given),AC50,[5],> 70 µM (inactive)
same,AC50,[6],26.8 µM (active)
CCc1nc2c3cnn(-c4cc(Cl)ccc4C)c3ncn2n1,EC50,Streptococcus,> 150 µM (not active)
same,EC50,Streptokinase A,> 150 µM (not active)
same,EC50,[3],> 150 µM (not active)
Cc1nnc(-c2cnn(-c3ccccc3)c2N)n1Cc1ccncc1,AC50,Cytochrome P450 1A2,11.2 µM (inconclusive)
same,AC50,Cytochrome P450 2C19; read-out: AC50,11.2 µM (inconclusive)
same,AC50,Cytochrome P450 3A4,15.8 µM (inconclusive)
N=c1c(-c2nc3ccccc3[nH]2)cc(C(=O)c2cccs2)nn1-c1ccccc1,CC50,[2],15.3 µM (active)
same,EC50,[7],> 60 µM (not active)
same,EC50,Streptococcus,5.63 µM (active)
same,EC50,[8],0.39 µM (active)
same,EC50,[3],1.51 µM (active)
COc1ccc(NP(=O)(Oc2ccc(Cl)cc2)Oc2ccc(Cl)cc2)cc1OC,EC50,Streptococcus,16.3 µM (active)
same,EC50,Streptokinase A,21.1 µM (active)
same,EC50,[3],12.4 µM (active)
Cc1ccc(NC(S)=NCc2ccc3[nH]c4c(c3c2)CCCC4)cc1,CC50,[2],9.29 µM (active)
N#CC1(c2ccc(NC(=O)c3ccccc3F)cc2)CCCC1,CC50,[2],> 50 µM (active)
O=C(c1ccco1)N1CCC2(CCCN(c3ccccn3)C2)CC1,AC50,Cytochrome P450 1A2,10 µM (inconclusive)
same,AC50,Cytochrome P450 3A4,15.8 µM (inconclusive)
COCCn1c(=O)c(-c2ccc(F)cc2)nc2cnc(Nc3cccc(OC)c3)nc21,AC50,Cytochrome P450 1A2,3.16 µM (inconclusive)
Cc1cccc(OC2(c3ccccc3)OC(=O)c3ccccc32)c1C (stereo not given),AC50,Cytochrome P450 1A2,14.1 µM (inconclusive)
same,AC50,Cytochrome P450 3A4,28.2 µM (inconclusive)
Cc1cccc(NC(=NS(=O)(=O)c2ccccc2)C(F)(F)F)c1,AC50,Cytochrome P450 2C19; read-out: AC50,22.4 µM (inconclusive)
same,AC50,Cytochrome P450 3A4,25.1 µM (inconclusive)
CCC(C)Nc1nc(OCC(F)(F)F)nc(OCC(F)(F)F)n1 (stereo not given),AC50,Cytochrome P450 2C19; read-out: AC50,3.16 µM (inconclusive)
COc1cc(OC)cc(C(=O)Nc2nnc(N=C(S)Nc3ccccc3)s2)c1,CC50,[2],8.31 µM (active)
same,EC50,Streptococcus,30.7 µM (active)
same,EC50,[3],9.71 µM (active)
COc1cc(OC)cc(C(=O)Nc2nnc(NC(=S)Nc3ccccc3)s2)c1,EC50,Streptokinase A,> 150 µM (not active)
CN(Cc1c(F)cccc1Cl)C(=O)CCc1c[nH]c2ccccc12,CC50,[2],30 µM (active)
COC(=O)N1CCC2(CCCN(c3ccncc3)C2)CC1,AC50,Cytochrome P450 2C19,inconclusive
O=C1NN=C(c2ccc(Cl)cc2)CC1c1cccc(Cl)c1 (stereo not given),CC50,[2],30.2 µM (active)
O=C(Nc1cccc2ncccc12)c1cccc(F)c1,AC50,Cytochrome P450 1A2,15.8 µM (inconclusive)
same,AC50,Cytochrome P450 3A4,22.4 µM (inconclusive)
CCC1(c2ccc(F)cc2)NC(=O)N(CC(=O)N2CCc3ccccc32)C1=O (stereo not given),EC50,[4],11 µM (active)
C[C@@H]1CN([C@H](C)CO)C(=O)c2cc(NC(=O)Nc3ccc(C(F)(F)F)cc3)ccc2O[C@@H](C)CCCCO[C@H]1CN(C)S(=O)(=O)c1ccc(F)cc1,AC50,Paired box protein Pax-8,6.53 µM (active)
C[C@@H]1CCCCO[C@H](CN(C)C(=O)C2CCCCC2)[C@@H](C)CN([C@@H](C)CO)C(=O)c2cc(NC(=O)Nc3ccccc3)ccc2O1,AC50,Paired box protein Pax-8,5.39 µM (active)
C/C(N)=C(/C#N)C(=O)CSc1nnc(COc2cc(C)ccc2C)o1,AC50,Cytochrome P450 1A2,4.47 µM (inconclusive)
same,AC50,Cytochrome P450 2C9,7.08 µM (inconclusive)
COc1ccc(-c2nn(-c3ccccc3)cc2/C=N/NS(=O)(=O)c2ccccc2)cc1,CC50,[2],17.8 µM (active)
O=C(Nc1ccc(N2CCCCC2)c(Cl)c1)c1nc[nH]n1,CC50,[2],16.6 µM (active)
